Experimental data taken from US6737383B1, “Herbicidal oxadiazolidines” (priority 1999, dated 2004).

Columns and labels:
[1] = test system: duck salad; assay: Test B flood test duck salad; type: in vivo, Heteranthera limosa; details: for Plant response rating, Ducksalad (0 to 10 scale, 0 is no effect, 10 is complete control) / Ducksalad plant response rating (0 to 10 scale, 0 is no effect, 10 is complete control): visual evaluation after twelve to sixteen days; for Ducksalad plant response rating (0 to 10 scale, 0 is no effect, 10 is complete control): under heading Pre-emergence
Procedure, shortened: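 Plants were grown to the 2-leaf stage before treatment with test chemical, then held in a greenhouse for twelve to sixteen days. Injury was visually rated against untreated controls on a 0–10 scale, where 0 is no effect and 10 is complete control.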

[2] = test system: rape; assay: Test B pre/postemergence rape; type: in vivo, Brassica napus
Procedure, shortened: (§1)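 Herbicidal effect was estimated by eye on a ten-point control scale after plants spent twelve to sixteen days in a greenhouse following soil or foliar treatment. Foliar sprays targeted plants at one to four leaves; all doses were formulated in a non-phytotoxic solvent with surfactant.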

[3] = test system: purple nutsedge; assay: Test B pre/postemergence purple nutsedge; type: in vivo, Cyperus rotundus
Procedure, shortened: as §1

[4] = test system: sugar beet; assay: Test B pre/postemergence sugar beet; type: in vivo, Beta vulgaris
Procedure, shortened: as §1

[5] = Postemergence, Rate 62 g/ha, scale 0 to 10, 0 is no effect, 10 is complete control
[6] = Postemergence, Rate 250 g/ha, scale 0 to 10, 0 no effect, 10 complete control
[7] = Preemergence, Rate 62 g/ha, scale 0 to 10, 0 is no effect, 10 is complete control
[8] = Preemergence, Rate 125 g/ha, scale 0 to 10 (0 no effect, 10 complete control)
[9] = Preemergence, Rate 250 g/ha, scale of 0 to 10 where 0 is no effect and 10 is complete control
[10] = Preemergence, Rate 500 g/ha, scale 0 (no effect) to 10 (complete control)
[11] = Rate 125 g/ha, Postemergence, scale 0 to 10, 0 no effect, 10 complete control
[12] = Rate 500 g/ha, Postemergence, scale 0 to 10, 0 no effect, 10 complete control
[13] = Rate 62 g/ha, flood test species, Pre-emergence
[14] = Rate 125 g/ha, flood test species
[15] = Rate 250 g/ha, Pre-emergence (flood test species), scale 0 to 10, 0 is no effect, 10 is complete control
[16] = Rate 500 g/ha, Pre-emergence, flood test species, scale 0 to 10 (0 no effect, 10 complete control)
[17] = Postemergence, Rate 250 g/ha, scale 0 to 10
[18] = Preemergence, Rate 62 g/ha, scale of 0 to 10 where 0 is no effect and 10 is complete control
[19] = Preemergence, Rate 125 g/ha, scale of 0 to 10 where 0 is no effect and 10 is complete control
[20] = Preemergence, Rate 250 g/ha, scale 0 to 10, 0 is no effect, 10 is complete control
[21] = Preemergence, Rate 500 g/ha, scale 0 to 10, 0 is no effect, 10 is complete control
[22] = Rate 62 g/ha, Postemergence, scale 0 to 10 (0 no effect, 10 complete control)
[23] = Rate 125 g/ha, Postemergence, scale 0 to 10, 0 is no effect, 10 is complete control
[24] = Rate 62 g/ha, headed Pre-emergence (flood test species), scale 0 to 10 (0 no effect, 10 complete control)
[25] = Rate 125 g/ha, Pre-emergence, flood test species, scale 0 to 10 where 0 is no effect and 10 is complete control
[26] = Rate 250 g/ha, Pre-emergence, flood-test species, scale 0 to 10, 0 is no effect, 10 is complete control
[27] = Preemergence, Rate 500 g/ha, scale of 0 to 10 where 0 is no effect and 10 is complete control
[28] = Rate 125 g/ha, Postemergence, scale of 0 to 10 where 0 is no effect and 10 is complete control
[29] = Rate 250 g/ha, Postemergence, scale of 0 to 10 where 0 is no effect and 10 is complete control
[30] = Preemergence, Rate 125 g/ha, 0 is no effect, 10 is complete control
[31] = Preemergence, Rate 500 g/ha, scale 0 to 10 (0 no effect, 10 complete control)
[32] = Rate 62 g/ha, Postemergence, scale of 0 to 10 where 0 is no effect and 10 is complete control
[33] = Rate 125 g/ha, Postemergence, scale 0 to 10
[34] = Rate 500 g/ha, Postemergence, scale 0 to 10
[35] = Postemergence, Rate 125 g/ha, scale of 0 to 10 where 0 is no effect and 10 is complete control
[36] = Postemergence, Rate 250 g/ha, scale of 0 to 10, 0 is no effect, 10 is complete control
[37] = Preemergence, Rate 62 g/ha, scale 0 to 10 (0 no effect, 10 complete control)
[38] = Preemergence, Rate 250 g/ha, scale 0 to 10 (0 no effect, 10 complete control)

CCc1cccc(C)c1-n1c(=O)on(C(=O)N(c2ccc(F)cc2)C(C)C)c1=O [Compound 52]
0: Ducksalad plant response rating [1, 5] | Ducksalad plant response rating ([1]; Rate 125 g/ha, Postemergence section (flood test species), scale 0 to 10, 0 no effect, 10 complete control) | Ducksalad plant response rating ([1]; Rate 500 g/ha, listed under Postemergence (flood test species), scale 0 to 10, 0 no effect, 10 complete control) | Ducksalad plant response rating ([1]; flood test, listed under Postemergence, Rate 250 g/ha, scale 0 to 10, 0 no effect, 10 complete control) | Rape plant response rating [2, 5] | Rape plant response rating [2, 6] | Plant response rating, Rape [2, 7] | Plant response rating, Rape [2, 8] | Plant response rating, Rape [2, 9] | Rape plant response rating [2, 10] | Rape plant response rating [2, 11] | Rape plant response rating [2, 12] | Nutsedge plant response rating [3, 5] | Nutsedge plant response rating [3, 6] | Plant response rating, Nutsedge [3, 7] | Plant response rating, Nutsedge [3, 8] | Plant response rating, Nutsedge [3, 9] | Nutsedge plant response rating [3, 10] | Nutsedge plant response rating [3, 11] | Nutsedge plant response rating [3, 12] | Sugarbeets plant response rating [4, 5] | Sugarbeets plant response rating [4, 6] | Plant response rating, Sugarbeets [4, 7] | Plant response rating, Sugarbeets [4, 8] | Plant response rating, Sugarbeets [4, 9] | Sugarbeets plant response rating [4, 10] | Sugarbeets plant response rating [4, 11] | Sugarbeets plant response rating [4, 12]

CC(C)N(C(=O)n1oc(=O)n(CC(=O)N(C)C)c1=O)c1ccc(Cl)cc1 [Compound 477]
2: Rape plant response rating [2, 21]
1: Rape plant response rating [2, 17]
0: Plant response rating, Ducksalad (0 to 10 scale, 0 is no effect, 10 is complete control) [1, 13] | Ducksalad plant response rating (0 to 10 scale, 0 is no effect, 10 is complete control) [1, 14] | Ducksalad plant response rating [1, 15] | Ducksalad plant response rating [1, 16] | Plant response rating, Rape [2, 18] | Plant response rating, Rape [2, 19] | Rape plant response rating [2, 20] | Rape plant response rating [2, 22] | Rape plant response rating [2, 23] | Nutsedge plant response rating [3, 17] | Plant response rating, Nutsedge [3, 19] | Nutsedge plant response rating [3, 20] | Nutsedge plant response rating [3, 21] | Nutsedge plant response rating [3, 22] | Nutsedge plant response rating [3, 23] | Sugarbeets plant response rating [4, 17] | Plant response rating, Sugarbeets [4, 18] | Plant response rating, Sugarbeets [4, 19] | Sugarbeets plant response rating [4, 20] | Sugarbeets plant response rating [4, 21] | Sugarbeets plant response rating [4, 22] | Sugarbeets plant response rating [4, 23]

Cc1ccccc1-n1c(=O)on(C(=O)N(c2ccc(OC(F)(F)F)cc2)C(C)C)c1=O [Compound 300]
0: Ducksalad plant response rating [1, 24] | Ducksalad plant response rating [1, 25] | Ducksalad plant response rating [1, 26] | Ducksalad plant response rating [1, 16] | Rape plant response rating [2, 18] | Rape plant response rating (0 to 10 scale) ([2]; Preemergence, Rate 125 g/ha) | Rape plant response rating [2, 9] | Rape plant response rating [2, 27] | Rape plant response rating [2, 22] | Rape plant response rating [2, 28] | Plant response rating, Rape [2, 29] | Nutsedge plant response rating [3, 18] | Nutsedge plant response rating (0 to 10 scale) ([3]; Preemergence, Rate 125 g/ha) | Nutsedge plant response rating [3, 9] | Nutsedge plant response rating [3, 27] | Nutsedge plant response rating [3, 22] | Nutsedge plant response rating [3, 28] | Plant response rating, Nutsedge [3, 29] | Sugarbeets plant response rating [4, 18] | Sugarbeets plant response rating (0 to 10 scale) ([4]; Preemergence, Rate 125 g/ha) | Sugarbeets plant response rating [4, 9] | Sugarbeets plant response rating [4, 27] | Sugarbeets plant response rating [4, 22] | Sugarbeets plant response rating [4, 28] | Plant response rating, Sugarbeets [4, 29]

Cc1ccccc1-n1c(=O)on(C(=O)N(c2ccc(Cl)cc2Cl)C(C)C)c1=O [Compound 185]
0: Ducksalad plant response rating [1, 24] | Ducksalad plant response rating [1, 25] | Ducksalad plant response rating [1, 26] | Plant response rating, Ducksalad ([1]; Rate 500 g/ha, headed Pre-emergence (flood test species), scale 0 to 10 (0 no effect, 10 complete control)) | Rape plant response rating [2, 18] | Rape plant response rating (0 to 10 scale) [2, 30] | Rape plant response rating [2, 20] | Rape plant response rating [2, 31] | Rape plant response rating [2, 32] | Rape plant response rating [2, 33] | Plant response rating (0 to 10; 0 is no effect, 10 is complete control), Rape ([2]; Rate 250 g/ha, Postemergence) | Rape plant response rating [2, 34] | Nutsedge plant response rating [3, 20] | Nutsedge plant response rating [3, 31] | Nutsedge plant response rating [3, 32] | Nutsedge plant response rating [3, 33] | Plant response rating (0 to 10; 0 is no effect, 10 is complete control), Nutsedge ([3]; Rate 250 g/ha, Postemergence) | Nutsedge plant response rating [3, 34] | Sugarbeets plant response rating [4, 18] | Sugarbeets plant response rating (0 to 10 scale) [4, 30] | Sugarbeets plant response rating [4, 20] | Sugarbeets plant response rating [4, 31] | Sugarbeets plant response rating [4, 32] | Sugarbeets plant response rating [4, 33] | Plant response rating (0 to 10; 0 is no effect, 10 is complete control), Sugarbeets ([4]; Rate 250 g/ha, Postemergence) | Sugarbeets plant response rating [4, 34]

C=CCn1c(=O)on(C(=O)N(c2ccc(Cl)cc2)C(C)C2CC2)c1=O (centres unmarked) [Compound 325]
2: Plant response rating, Rape [2, 12]
0: Ducksalad plant response rating [1, 24] | Ducksalad plant response rating [1, 25] | Ducksalad plant response rating [1, 26] | Ducksalad plant response rating [1, 16] | Rape plant response rating [2, 18] | Rape plant response rating (0 to 10 scale) ([2]; Preemergence, Rate 125 g/ha) | Rape plant response rating [2, 9] | Rape plant response rating [2, 27] | Rape plant response rating [2, 22] | Rape plant response rating [2, 28] | Plant response rating, Rape [2, 29] | Nutsedge plant response rating [3, 18] | Nutsedge plant response rating (0 to 10 scale) ([3]; Preemergence, Rate 125 g/ha) | Nutsedge plant response rating [3, 9] | Nutsedge plant response rating [3, 22] | Nutsedge plant response rating [3, 28] | Plant response rating, Nutsedge [3, 29] | Plant response rating, Nutsedge [3, 12] | Sugarbeets plant response rating [4, 18] | Sugarbeets plant response rating (0 to 10 scale) ([4]; Preemergence, Rate 125 g/ha) | Sugarbeets plant response rating [4, 9] | Sugarbeets plant response rating [4, 27] | Sugarbeets plant response rating [4, 22] | Sugarbeets plant response rating [4, 28] | Plant response rating, Sugarbeets [4, 29] | Plant response rating, Sugarbeets [4, 12]

COCCn1c(=O)on(C(=O)N(c2ccc(F)cc2)C(C)C)c1=O [Compound 627]
3: Rape plant response rating [2, 19] | Plant response rating, Nutsedge [3, 5]
8: Plant response rating, Sugarbeets [4, 38]
9: Plant response rating, Rape [2, 38] | Plant response rating, Sugarbeets [4, 27]
6: Nutsedge plant response rating [3, 36]
4: Sugarbeets plant response rating [4, 19]
10: Plant response rating, Rape [2, 27] | Plant response rating, Nutsedge [3, 27]
0: Plant response rating, Ducksalad (0 to 10 scale, 0 is no effect, 10 is complete control) [1, 13] | Ducksalad plant response rating (0 to 10 scale, 0 is no effect, 10 is complete control) [1, 14] | Ducksalad plant response rating [1, 15] | Plant response rating, Rape [2, 5] | Plant response rating, Rape [2, 35] | Rape plant response rating [2, 36] | Plant response rating, Sugarbeets [4, 5] | Plant response rating, Sugarbeets [4, 35] | Sugarbeets plant response rating [4, 36]
1: Ducksalad plant response rating ([1]; Rate 500 g/ha, Pre-emergence section of Table B, 0 to 10 scale (0 no effect, 10 complete control)) | Rape plant response rating [2, 37]
7: Nutsedge plant response rating [3, 37] | Nutsedge plant response rating [3, 19] | Plant response rating, Nutsedge [3, 38]
5: Plant response rating, Rape ([2]; Postemergence, Rate 500 g/ha, scale of 0 to 10 where 0 is no effect and 10 is complete control) | Sugarbeets plant response rating [4, 37]
